Source: ChEMBL document CHEMBL1134533, “Design, synthesis, computational prediction, and biological evaluation of ester soft drugs as inhibitors of dihydrofolate reductase from Pneumocystis carinii” (J Med Chem, 2001)

Columns and labels:
Dihydrofolate reductase [1] = target: T1, Dihydrofolate reductase (Rattus norvegicus, UniProt Q920D2)
T1 sequence (Q920D2 whole entry): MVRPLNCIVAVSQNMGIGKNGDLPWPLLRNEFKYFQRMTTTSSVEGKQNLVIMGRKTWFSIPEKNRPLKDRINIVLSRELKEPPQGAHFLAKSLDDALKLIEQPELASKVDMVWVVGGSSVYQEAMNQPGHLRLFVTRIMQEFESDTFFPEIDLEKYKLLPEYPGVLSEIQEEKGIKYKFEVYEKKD
Description: Inhibitory concentration against dihydrofolate reductase DHFR from rat liver.

[2] = target: T2, Bifunctional dihydrofolate reductase-thymidylate synthase (Toxoplasma gondii, UniProt Q07422)
T2 sequence (Q07422 whole entry): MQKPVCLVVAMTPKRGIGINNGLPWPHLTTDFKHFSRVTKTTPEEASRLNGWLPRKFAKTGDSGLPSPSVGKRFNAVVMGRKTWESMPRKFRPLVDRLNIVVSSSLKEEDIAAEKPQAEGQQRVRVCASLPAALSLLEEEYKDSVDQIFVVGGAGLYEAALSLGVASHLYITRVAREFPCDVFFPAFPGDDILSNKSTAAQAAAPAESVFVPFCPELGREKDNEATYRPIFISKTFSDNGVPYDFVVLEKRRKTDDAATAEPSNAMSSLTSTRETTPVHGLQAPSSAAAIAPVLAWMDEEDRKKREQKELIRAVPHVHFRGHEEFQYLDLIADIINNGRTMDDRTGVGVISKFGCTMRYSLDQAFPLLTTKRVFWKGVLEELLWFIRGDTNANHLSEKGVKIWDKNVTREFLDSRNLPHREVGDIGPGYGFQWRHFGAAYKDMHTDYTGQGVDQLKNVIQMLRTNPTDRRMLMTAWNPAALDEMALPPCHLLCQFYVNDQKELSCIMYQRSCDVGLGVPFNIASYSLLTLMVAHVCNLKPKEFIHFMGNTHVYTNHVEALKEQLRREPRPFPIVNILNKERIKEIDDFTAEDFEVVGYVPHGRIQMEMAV
Description: Inhibitory concentration against dihydrofolate reductase DHFR from Toxoplasma gondii

Dihydrofolate reductase [3] = target: T3, Dihydrofolate reductase (Pneumocystis carinii, UniProt P16184)
T3 sequence (P16184 whole entry): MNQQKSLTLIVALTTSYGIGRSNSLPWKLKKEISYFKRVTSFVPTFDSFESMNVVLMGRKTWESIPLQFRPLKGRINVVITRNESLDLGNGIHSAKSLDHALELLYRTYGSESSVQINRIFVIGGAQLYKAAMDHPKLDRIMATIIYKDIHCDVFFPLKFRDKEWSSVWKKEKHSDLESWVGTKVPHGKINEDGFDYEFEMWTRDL
Description: Inhibitory concentration against dihydrofolate reductase dihydrofolate reductase from Pneumocystis carinii.

[4] = target: T4, Bifunctional dihydrofolate reductase-thymidylate synthase (Toxoplasma gondii) (UniProt Q07422); test: Relative activity against dihydrofolate reductase DHFR from Toxoplasma gondii
T4 sequence (whole entry): T2 sequence (Q07422 whole entry)

[5] = target: T5, Dihydrofolate reductase (Pneumocystis carinii) (UniProt P16184); test: Inhibitory activity against dihydrofolate reductase dihydrofolate reductase from Pneumocystis carinii. at 32 uM concentration
T5 sequence (whole entry): T3 sequence (P16184 whole entry)

[6] = target: T6, Dihydrofolate reductase (Rattus norvegicus) (UniProt Q920D2); test: Inhibitory activity against dihydrofolate reductase DHFR from rat liver at 32 uM concentration
T6 sequence (whole entry): T1 sequence (Q920D2 whole entry)

[7] = target: T4, Bifunctional dihydrofolate reductase-thymidylate synthase (Toxoplasma gondii); test: Inhibitory activity against dihydrofolate reductase DHFR from Toxoplasma gondii at 32 uM concentration
[8] = target: T6, Dihydrofolate reductase (Rattus norvegicus); test: Inhibitory activity against dihydrofolate reductase DHFR from rat liver at 51 uM concentration
[9] = target: T5, Dihydrofolate reductase (Pneumocystis carinii); test: Inhibitory activity against dihydrofolate reductase dihydrofolate reductase from Pneumocystis carinii. at 51 uM concentration
[10] = target: T4, Bifunctional dihydrofolate reductase-thymidylate synthase (Toxoplasma gondii); test: Inhibitory activity against dihydrofolate reductase DHFR from Toxoplasma gondii at 51 uM concentration
[11] = Ratio of the IC50 values for rlDHFR of the metabolite and pcDHFR of the soft drug
[12] = target: T5, Dihydrofolate reductase (Pneumocystis carinii); test: Inhibitory activity against dihydrofolate reductase dihydrofolate reductase from Pneumocystis carinii. at 104 uM concentration
[13] = target: T4, Bifunctional dihydrofolate reductase-thymidylate synthase (Toxoplasma gondii); test: Inhibitory activity against dihydrofolate reductase DHFR from Toxoplasma gondii at 104 uM concentration
[14] = target: T6, Dihydrofolate reductase (Rattus norvegicus); test: Inhibitory activity against dihydrofolate reductase DHFR from rat liver at 104 uM concentration

## COc1ccc(OC)c(C(=O)OCc2ccc3nc(N)nc(N)c3c2)c1
Dihydrofolate reductase [1]
  IC50: 420 nM
[2]
  IC50: 220 nM
Dihydrofolate reductase [3]
  IC50: 2400 nM

## CN(Cc1ccc2nc(N)nc(N)c2c1)c1ccccc1
Dihydrofolate reductase [1]
  IC50: 69 nM
[2]
  IC50: 11 nM
Dihydrofolate reductase [3]
  IC50: 96 nM

## Nc1nc(N)c2cc(C(=O)OCc3ccccc3)ccc2n1
Dihydrofolate reductase [1]
  IC50: 420 nM
[2]
  IC50: 360 nM
[4]
  Relative IC50: 1.2
Dihydrofolate reductase [3]
  IC50: 2500 nM

## COc1cc(C(=O)OCc2ccc3nc(N)nc(N)c3c2)cc(OC)c1OC
Dihydrofolate reductase [1]
  IC50: 26 nM
[2]
  IC50: 50 nM
[4]
  Relative IC50: 0.51
Dihydrofolate reductase [3]
  IC50: 560 nM

## COc1cc(OC)cc(C(=O)OCc2ccc3nc(N)nc(N)c3c2)c1
Dihydrofolate reductase [1]
  IC50: 350 nM
[2]
  IC50: 150 nM
Dihydrofolate reductase [3]
  IC50: 460 nM

## Nc1nc(N)c2cc(CNc3ccccc3)ccc2n1
Dihydrofolate reductase [1]
  IC50: 440 nM
[2]
  IC50: 100 nM
Dihydrofolate reductase [3]
  IC50: 980 nM

## Nc1nc(N)c2cc(COC(=O)Cc3ccccc3)ccc2n1
Dihydrofolate reductase [1]
  IC50: 2300 nM
[2]
  IC50: 1900 nM

## Nc1nc(N)c2cc(CO)ccc2n1
Dihydrofolate reductase [1]
  IC50: 40300 nM
[2]
  IC50: 44900 nM

## Nc1nc(N)c2cc(C(=O)O)ccc2n1
[5]
  inhibition: 11%
[6]
  inhibition: 3%
[7]
  inhibition: 16%

## Cc1c(CO)cnc2nc(N)nc(N)c12
Dihydrofolate reductase [1]
  IC50: 8500 nM
[2]
  IC50: 3200 nM

## Nc1nc(N)c2nc(COC(=O)c3ccccc3)cnc2n1
Dihydrofolate reductase [1]
  IC50: 7000 nM
[2]
  IC50: 5800 nM
Dihydrofolate reductase [3]
  IC50: 9800 nM

## Nc1nc(N)c2nc(CO)cnc2n1
[8]
  inhibition: 2%
[9]
  inhibition: 10%
[10]
  inhibition: 12%

## Nc1nc(N)c2cc(COC(=O)c3ccccc3)ccc2n1
Dihydrofolate reductase [1]
  IC50: 390 nM
[2]
  IC50: 99 nM
[4]
  Relative IC50: 3.9
Dihydrofolate reductase [3]
  IC50: 600 nM
[11]
  Ratio: 67

## COc1ccc(C(=O)OCc2ccc3nc(N)nc(N)c3c2)cc1OC
Dihydrofolate reductase [1]
  IC50: 110 nM
[2]
  IC50: 66 nM
Dihydrofolate reductase [3]
  IC50: 510 nM

## COc1cc(NCc2ccc3nc(N)nc(N)c3c2C)cc(OC)c1OC [TRIMETREXATE]
Dihydrofolate reductase [1]
  IC50: 8 nM

## COc1ccc(C(=O)OCc2ccc3nc(N)nc(N)c3c2)c(OC)c1OC
Dihydrofolate reductase [1]
  IC50: 500 nM
[2]
  IC50: 140 nM
Dihydrofolate reductase [3]
  IC50: 1400 nM

## Nc1nc(N)c2cc(COC(=O)c3ccccc3)cnc2n1
Dihydrofolate reductase [1]
  IC50: 3900 nM
[2]
  IC50: 1900 nM
Dihydrofolate reductase [3]
  IC50: 5450 nM

## Nc1nc(N)c2cc(CO)cnc2n1
[12]
  inhibition: 17%
[13]
  inhibition: 9%
[14]
  inhibition: 19%

## Cc1c(COC(=O)c2ccccc2)cnc2nc(N)nc(N)c12
Dihydrofolate reductase [1]
  IC50: 230 nM
[2]
  IC50: 56 nM
Dihydrofolate reductase [3]
  IC50: 250 nM
[11]
  Ratio: 33

## Nc1nc(N)c2cc(/C=C/C(=O)Oc3ccccc3)ccc2n1
Dihydrofolate reductase [1]
  IC50: 1290 nM
[2]
  IC50: 189 nM

## Nc1nc(N)c2cc(COC(=O)c3ccc(C(=O)O)cc3)ccc2n1
[2]
  IC50: 1000 nM
Dihydrofolate reductase [3]
  IC50: 1000 nM

## COc1ccc(OC)c(Cc2cnc3nc(N)nc(N)c3c2C)c1 [PIRITREXIM]
Dihydrofolate reductase [1]
  IC50: 4.4 nM
